The term IC50 denotes the concentration that gives 50% inhibition.

Consider 25 compounds from patent publication US20230167127A1, “COMPOUNDS AND THEIR USE IN THE TREATMENT OF BACTERIAL INFECTION” (Hoffmann-La Roche Inc., priority 2020, published 2023).

Where only a bound is given, the exact number is not on record here.

The test system of the first experiment is Escherichia coli ATCC 25922. In words: 50% growth inhibitory concentration (IC50) determination, Iso-Sensitest broth dilution. It is filed as cell-based. To be noted: Escherichia coli, ATCC25922, 16 h, strain Escherichia coli ATCC 25922; 10-point broth dilution, optical density at 600 nm over 16 h; read-out: Escherichia coli growth inhibition IC50. The method, boiled down:
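Growth was tracked as optical density at 600 nm every 20 minutes for 16 h at 35±2° C. Compounds from DMSO stocks were serially diluted twofold over 10 points (e.g. 50–0.097 μM final) in Iso-Sensitest broth. Inhibition computed in log-phase growth to give IC50.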
A general note: Dilution methods test growth across graded concentrations, often in twofold steps.
On to `NC1c2cc(OCC3(N)CC3)cc(Cl)c2CC1CNCCC1CN(c2cnc3c(n2)NC(=O)CO3)C(=O)O1` (racemic) [Example 282, 6-[2-Oxo-5-[2-[[rac-1,2-trans-1-amino-6-[(1-aminocyclopropyl)methoxy]-4-chloro-2,3-dihydro-1H-inden-2-yl]methylamino]ethyl]-1,3-oxazolidin-3-yl]-4H-pyrazino[2,3-b][1,4]oxazin-3-one; formic acid], for which the IC50 turned out to be 0.374 µM.

On to `O=C1COc2ccc(N3CC(CCNCC4Cc5cccc(Cl)c5C4)OC3=O)cc2N1` (stereo not shown) [Example 15, 6-[5-[2-[(4-chloro-2,3-dihydro-1H-inden-2-yl)methylamino]ethyl]-2-oxo-1,3-oxazolidin-3-yl]-4H-1,4-benzoxazin-3-one; formic acid], for which the IC50 was determined as 0.188 µM.

As to `CN1CCCC1COc1ccc2c(c1C#N)CC(CNCCC1CN(c3ccc4c(n3)NC(=O)CO4)C(=O)O1)C2` (stereo not shown) [Example 52, 5-[(1-methylpyrrolidin-2-yl)methoxy]-2-[[2-[2-oxo-3-(3-oxo-4H-pyrido[3,2-b][1,4]oxazin-6-yl)-1,3-oxazolidin-5-yl]ethylamino]methyl]-2,3-dihydro-1H-indene-4-carbonitrile; formic acid], the IC50 was below 0.0977 µM.

Take `Cc1ncc(F)c2c1C[C@@H](CNCC[C@H]1CN(c3cnc4c(n3)NC(=O)CO4)C(=O)O1)C2` [Example 428, 6-[(5S)-5-[2-[[(6R)-4-fluoro-1-methyl-6,7-dihydro-5H-cyclopenta[c]pyridin-6-yl]methylamino]ethyl]-2-oxo-1,3-oxazolidin-3-yl]-4H-pyrazino[2,3-b][1,4]oxazin-3-one]: the IC50 is below 0.0977 µM.

As for `O=C1COc2ccc(N3C[C@H](NC4CC(NC5Cc6cccc(F)c6C5)C4)CC3=O)nc2N1` (stereo partly drawn) [Example 23, 6-[(4R)-4-[[3-[(4-fluoro-2,3-dihydro-1H-inden-2-yl)amino]cyclobutyl]amino]-2-oxopyrrolidin-1-yl]-4H-pyrido[3,2-b][1,4]oxazin-3-one; formic acid], the IC50 was 2.17 µM.

`N#Cc1cc(OCc2cocn2)cc2c1CC(CNCCC1CN(c3cnc4c(n3)NC(=O)CO4)C(=O)O1)C2` (stereo not shown) [Example 386, 6-(1,3-oxazol-4-ylmethoxy)-2-[[2-[2-oxo-3-(3-oxo-4H-pyrazino[2,3-b][1,4]oxazin-6-yl)-1,3-oxazolidin-5-yl]ethylamino]methyl]-2,3-dihydro-1H-indene-4-carbonitrile]: the IC50 was below 0.0977 µM.

With `CONC(=O)COc1cc(F)c2c(c1)CC(CNCCC1CN(c3cnc4c(n3)NC(=O)CO4)C(=O)O1)C2` (stereo not shown) [Example 311, 2-[[7-Fluoro-2-[[2-[2-oxo-3-(3-oxo-4H-pyrazino[2,3-b][1,4]oxazin-6-yl)-1,3-oxazolidin-5-yl]ethylamino]methyl]-2,3-dihydro-1H-inden-5-yl]oxy]-N-methoxyacetamide; formic acid], the IC50 is 0.382 µM.

For `O=C1COc2ncc(N3CC(CCNCC4Cc5ncc(F)c(Cl)c5C4)OC3=O)nc2N1` (stereo not shown) [Example 319, 6-[5-[2-[(4-chloro-3-fluoro-6,7-dihydro-5H-cyclopenta[b]pyridin-6-yl)methylamino]ethyl]-2-oxo-1,3-oxazolidin-3-yl]-4H-pyrazino[2,3-b][1,4]oxazin-3-one; formic acid], the IC50 is below 0.0977 µM.

Take `Cc1ncc(F)c2c1CC(CNCCc1nn(-c3cnc4c(n3)NC(=O)CO4)c(=O)o1)C2` (stereo not shown) [Example 335, 6-[5-[2-[(4-fluoro-1-methyl-6,7-dihydro-5H-cyclopenta[c]pyridin-6-yl)methylamino]ethyl]-2-oxo-1,3,4-oxadiazol-3-yl]-4H-pyrazino[2,3-b][1,4]oxazin-3-one]: the IC50 amounted to 0.225 µM.

Turning to `COc1cc2c(c(Cl)n1)CC(CNCCC1CN(c3ccc4c(n3)NC(=O)CO4)C(=O)O1)C2` (stereo not shown) [Example 49, 6-[5-[2-[(1-chloro-3-methoxy-6,7-dihydro-5H-cyclopenta[c]pyridin-6-yl)methylamino]ethyl]-2-oxo-1,3-oxazolidin-3-yl]-4H-pyrido[3,2-b][1,4]oxazin-3-one], the IC50 was 0.193 µM.

Consider `Cc1nccc2c1CC(NCCCC1CN(c3ccc4c(n3)NC(=O)CO4)C(=O)O1)C2` (stereo not shown) [Example 94, 6-[5-[3-[(1-methyl-6,7-dihydro-5H-cyclopenta[c]pyridin-6-yl)amino]propyl]-2-oxo-1,3-oxazolidin-3-yl]-4H-pyrido[3,2-b][1,4]oxazin-3-one], for which the IC50 was found to be 0.485 µM.

As to `NC(CN1CC2(C1)CN(c1ccc3c(n1)NC(=O)CO3)C(=O)O2)C1Cc2cccc(Cl)c2C1` (stereo not shown) [Example 159, 6-[2-[2-amino-2-(4-chloro-2,3-dihydro-1H-inden-2-yl)ethyl]-6-oxo-5-oxa-2,7-diazaspiro[3.4]octan-7-yl]-4H-pyrido[3,2-b][1,4]oxazin-3-one; formic acid], the IC50 turned out to be 0.17 µM.

In the case of `Cc1nccc2c1CC(NCCCc1cn(-c3cnc4c(n3)NC(=O)CO4)c(=O)o1)C2` (single isomer, unassigned; enantiomer a) [Example 369, 6-[5-[3-[(1-Methyl-6,7-dihydro-5H-cyclopenta[c]pyridin-6-yl)amino]propyl]-2-oxo-1,3-oxazol-3-yl]-4H-pyrazino[2,3-b][1,4]oxazin-3-one; formic acid, Enantiomer A], the IC50 amounted to 0.172 µM.

Take `O=C1COc2ncc(N3CC(CCNCC4Cc5cc(OCc6cc[nH]n6)cc(F)c5C4)OC3=O)nc2N1` (stereo not shown) [Example 320, 6-[5-[2-[[4-Fluoro-6-(1H-pyrazol-3-ylmethoxy)-2,3-dihydro-1H-inden-2-yl]methylamino]ethyl]-2-oxo-1,3-oxazolidin-3-yl]-4H-pyrazino[2,3-b][1,4]oxazin-3-one; formic acid]: the IC50 stood at 0.202 µM.

Regarding `O=C1COc2ncc(N3CC(C4CCN(C5Cc6cccc(F)c6C5)CC4)OC3=O)nc2N1` (stereo not shown) [Example 350, 6-[5-[1-(4-fluoro-2,3-dihydro-1H-inden-2-yl)piperidin-4-yl]-2-oxo-1,3-oxazolidin-3-yl]-4H-pyrazino[2,3-b][1,4]oxazin-3-one], the concentration for half-maximal inhibition (IC50) was below 0.0977 µM.

For `NC(=O)COc1cc(F)c2c(c1)CC(CNCC[C@H]1CN(c3cnc4c(n3)NC(=O)CO4)C(=O)O1)C2` (single isomer, unassigned; isomer a) [Example 379], the IC50 is below 0.0977 µM.

As to `N#Cc1cccc2c1CC(CNC[C@H](O)[C@@H]1CN(c3ccc4c(c3)NC(=O)CO4)C(=O)O1)C2` (stereo partly drawn) [Example 62, 2-[[[(2S)-2-hydroxy-2-[(5S)-2-oxo-3-(3-oxo-4H-1,4-benzoxazin-6-yl)-1,3-oxazolidin-5-yl]ethyl]amino]methyl]-2,3-dihydro-1H-indene-4-carbonitrile; formic acid], the IC50 is 0.208 µM.

For the compound `CC(C)(CC1CN(c2ccc3c(n2)NC(=O)CO3)C(=O)O1)NCC1Cc2ccnc(Cl)c2C1` (stereo not shown) [Example 30, 6-[5-[2-[(1-chloro-6,7-dihydro-5H-cyclopenta[c]pyridin-6-yl)methylamino]-2-methylpropyl]-2-oxo-1,3-oxazolidin-3-yl]-4H-pyrido[3,2-b][1,4]oxazin-3-one; formic acid], the IC50 was 3.4 µM.

For `N#Cc1cc(OCc2cnn[nH]2)cc2c1CC(CNCCC1CN(c3cnc4c(n3)NC(=O)CO4)C(=O)O1)C2` (stereo not shown) [Example 425, 2-[[2-[2-Oxo-3-(3-oxo-4H-pyrazino[2,3-b][1,4]oxazin-6-yl)-1,3-oxazolidin-5-yl]ethylamino]methyl]-6-(1N-triazol-5-ylmethoxy)-2,3-dihydro-1H-indene-4-carbonitrile], the IC50 was found to be 0.102 µM.

As for `CC(CN)Oc1cc(F)c2c(c1)CC(CNCCC1CN(c3ccc4c(n3)NC(=O)CO4)C(=O)O1)C2` (stereo not shown) [Example 155, 6-[5-[2-[[6-(1-aminopropan-2-yloxy)-4-fluoro-2,3-dihydro-1H-inden-2-yl]methylamino]ethyl]-2-oxo-1,3-oxazolidin-3-yl]-4H-pyrido[3,2-b][1,4]oxazin-3-one; formic acid], the half-maximal inhibitory concentration (IC50) is 0.364 µM.

As to `Cc1ncc(F)c2c1CC(CNCCc1cn(-c3cnc4c(n3)NC(=O)CO4)c(=O)o1)C2` (stereo not shown) [Example 293, 6-[5-[2-[(4-fluoro-1-methyl-6,7-dihydro-5H-cyclopenta[c]pyridin-6-yl)methylamino]ethyl]-2-oxo-1,3-oxazol-3-yl]-4H-pyrazino[2,3-b][1,4]oxazin-3-one], the IC50 is below 0.0977 µM.

In the case of `CCOC(=O)c1cn(CC)c2c3c(c(F)cc2c1=O)CC(CNCCC1CN(c2ccc4c(n2)NC(=O)CO4)C(=O)O1)C3` (stereo not shown) [Example 225, ethyl 1-ethyl-6-fluoro-4-oxo-8-[[2-[2-oxo-3-(3-oxo-4H-pyrido[3,2-b][1,4]oxazin-6-yl)-1,3-oxazolidin-5-yl]ethylamino]methyl]-8,9-dihydro-7H-cyclopenta[h]quinoline-3-carboxylate], the IC50 amounted to 0.547 µM.

The same experiment, now with this note: strain Escherichia coli ATCC 25922; 10-point broth dilution, optical density at 600 nm over 16 h; read-out: Escherichia coli growth inhibition IC50.
`N#Cc1cccc2c1CC(NC1CCC3(CC1)CN(c1ccc4c(n1)NC(=O)CO4)C(=O)O3)C2` (single isomer, unassigned; isomer b) [Example 40, 2-[[2-oxo-3-(3-oxo-4H-pyrido[3,2-b][1,4]oxazin-6-yl)-1-oxa-3-azaspiro[4.5]decan-8-yl]amino]-2,3-dihydro-1H-indene-4-carbonitrile. Isomer B; formic acid]: the IC50 amounted to 0.153 µM.

As to `Cc1ncc(C#N)c2c1CC(NCCCc1cn(-c3cnc4c(n3)NC(=O)CO4)c(=O)o1)C2` (single isomer, unassigned; enantiomer b) [Example 322, 1-Methyl-6-[3-[2-oxo-3-(3-oxo-4H-pyrazino[2,3-b][1,4]oxazin-6-yl)-1,3-oxazol-5-yl]propylamino]-6,7-dihydro-5H-cyclopenta[c]pyridine-4-carbonitrile, Enantiomer B], the IC50 was below 0.0977 µM.

Consider `N#Cc1cccc2c1CC(CNC1CCC3C(C1)OC(=O)N3c1ccc3c(n1)NC(=O)CO3)C2` (racemic) [Example 99, 2-[[[rac-3a,7a-cis-6,7a-trans-2-oxo-3-(3-oxo-4H-pyrido[3,2-b][1,4]oxazin-6-yl)-3a,4,5,6,7,7a-hexahydro-1,3-benzoxazol-6-yl]amino]methyl]-2,3-dihydro-1H-indene-4-carbonitrile; formic acid], for which the IC50 is 0.516 µM.
